Assay results reported in patent publication US6068838A, “Purified multimerase” (Baxter Aktiengesellschaft, priority 1996, dated 2000).

Columns and labels:
vWF protease = target: T1, vWF protease (Homo sapiens, UniProt Q76LX8); experiment: Degradation of vWF by the vWF protease in the presence of aprotinin or PPACK; format: biochemical; details: for degradation of recombinant vWF by the protease in the presence of inhibitor: inhibitor concentration at which no protease activity detected with a chromogenic substrate of plasmin
T1 construct: the preparation prepared according to the invention with the vWF-specific protease; from tissue
T1 sequence (Q76LX8 75-1427): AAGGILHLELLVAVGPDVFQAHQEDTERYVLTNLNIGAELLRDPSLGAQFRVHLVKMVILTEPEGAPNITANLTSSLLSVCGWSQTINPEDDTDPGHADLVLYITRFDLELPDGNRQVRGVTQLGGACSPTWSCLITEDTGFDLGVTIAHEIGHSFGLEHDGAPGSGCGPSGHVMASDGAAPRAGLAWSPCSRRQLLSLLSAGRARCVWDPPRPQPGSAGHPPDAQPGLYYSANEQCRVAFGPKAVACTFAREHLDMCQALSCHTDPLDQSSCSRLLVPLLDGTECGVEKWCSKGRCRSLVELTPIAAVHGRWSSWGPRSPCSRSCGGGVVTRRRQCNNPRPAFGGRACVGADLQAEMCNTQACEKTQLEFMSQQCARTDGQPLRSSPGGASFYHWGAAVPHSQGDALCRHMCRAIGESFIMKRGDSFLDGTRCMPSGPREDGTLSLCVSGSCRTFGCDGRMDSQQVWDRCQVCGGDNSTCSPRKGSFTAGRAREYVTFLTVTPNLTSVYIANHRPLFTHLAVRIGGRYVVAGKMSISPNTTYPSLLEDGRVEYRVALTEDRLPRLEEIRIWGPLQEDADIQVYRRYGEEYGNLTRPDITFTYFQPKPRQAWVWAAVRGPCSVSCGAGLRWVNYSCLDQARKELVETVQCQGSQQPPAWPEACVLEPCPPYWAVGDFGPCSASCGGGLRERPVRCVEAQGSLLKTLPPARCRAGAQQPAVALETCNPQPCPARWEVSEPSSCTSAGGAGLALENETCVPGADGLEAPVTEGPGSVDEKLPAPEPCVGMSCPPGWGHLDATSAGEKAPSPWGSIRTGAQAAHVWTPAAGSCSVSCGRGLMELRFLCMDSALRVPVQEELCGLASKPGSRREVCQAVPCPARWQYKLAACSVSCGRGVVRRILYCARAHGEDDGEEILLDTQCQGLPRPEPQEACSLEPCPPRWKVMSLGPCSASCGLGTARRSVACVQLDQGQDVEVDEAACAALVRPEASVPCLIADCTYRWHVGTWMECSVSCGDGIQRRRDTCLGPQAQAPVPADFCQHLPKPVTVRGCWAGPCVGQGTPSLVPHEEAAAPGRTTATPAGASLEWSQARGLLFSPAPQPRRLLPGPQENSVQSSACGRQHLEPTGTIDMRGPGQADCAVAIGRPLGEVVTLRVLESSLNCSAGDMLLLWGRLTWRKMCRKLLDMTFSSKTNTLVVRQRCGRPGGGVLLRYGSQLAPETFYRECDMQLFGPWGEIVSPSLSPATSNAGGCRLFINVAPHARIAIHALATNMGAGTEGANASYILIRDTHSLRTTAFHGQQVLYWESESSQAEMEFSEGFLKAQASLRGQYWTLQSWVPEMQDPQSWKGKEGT
Experimental: The concentration of aprotinin and PPACK was chosen such that no protease activity could be detected with a chromogenic substrate of plasmin.
In this experiment, the degradation products of the recombinant vWF with the protease according to the invention were the satellite bands developed and the central bands. Actually all bands were very similar to plasmatic vWF (FIG. 14 (panel C)).
(§1) Analysis of the r-vWF and its proteolytic degradation products was performed on 1% and 2% agarose gels, also according to the method of Ruggeri et al. (Blood 57 (1981), 1140-1143). The vWF multimers were made visible by immunoenzymatic staining according to Aihara et al. (Thromb. Haemostas. 55 (1986), 263-267). A rabbit-anti-von Willebrand factor-antiserum (from Dakopatts, Glostrup, Denmark) was used as the primary antibody, and an alkaline phosphatase-conjugated, affinity-purified goat-anti-rabbit IgG H+L-antibody (from Axell Accurate Chemical and Scientific Corp, Westburg, N.Y.) served as the secondary antibody. Staining of the protein bands was effected by means of the nitroblue tetrazolium/bromochloro-indolyl-phosphate substrate system.

plasmin = target: T2, plasmin (Homo sapiens, UniProt P00747); experiment: Degradation of vWF with plasmin with and without inhibitors; format: biochemical; details: for effect of inhibitor on plasmin-induced reduction of high multimers of cryoprecipitate: incubation for more than 8 hours; for effect of inhibitor on plasmin degradation of r-vWF: plasmin reduced to 1:10, about 20 hours
T2 construct: plasmin being diluted to 0.2 U/ml in 20 mM TBS buffer, pH 8.3
Experimental: as §1

vWF-cleaving protease = target: T3, vWF-cleaving protease (Homo sapiens, UniProt Q76LX8); experiment: Effect of protease inhibitors on vWF degradation; format: biochemical
T3 construct: Purification of Protease from Plasma; from tissue; host or cells: plasma (fibrinogen removed before chromatography)
T3 sequence (Q76LX8 75-1427): T1 sequence (Q76LX8 75-1427)

[1] = Plasmin activity of the protease preparation with chromogenic substrate; format: biochemical; details: preparation after copper chelate affinity chromatography
Excerpt: Thus, it was necessary to exclude the possibility that the protease preparation might effect a degradation of the von Willebrand factor multimers due to plasmin present in the preparation rather than as a result of the vWF-specific protease.

[2] = Stability of the protease in solution; format: physicochemical
Excerpt: In the absence of these ions the protease was quite stable in solution, and thus it was possible to purify the enzyme by chromatographic procedures taking place for several days at room temperature.

vWF = experiment: Polypeptide subunits and N-terminal sequence of vWF degraded by the purified protease; format: biochemical, human; details: from N-terminal sequences of 250, 170 and 140 kD bands
Experimental: For analysis of the amino acid composition and of amino acid sequence, the unreduced peak fraction of the protease and the reduced vWF fragments were dialyzed against 1 mM EDTA, were lyophilized, and were redissolved in 1/50 of the original volume before SDS-PAGE. The HMW protein bands were electrotransferred from the gel to a PVDF (polyvinyliden-difluoride) membrane (BioRad) for 6 hours at 26 V and 0.4 A, using 0.05% SDS, 10% methanol, 0.05 M boric acid, pH 9.0, as transfer buffer. After transfer, the membrane was stained with Coomassie-Blue in 40% methanol, destained in 40% methanol and 10% acetic acid, and air-dried. The excised bands were transferred to the blot cartridge of the Applied Biosystems Model 477A sequenator, which was equipped with on-line high-performance liquid chromatography for analysis of phenylthiohydantoin derivatives, For analysis of amino acid compositions, the protein bands were hydrolyzed in the gas phase over 6N HCl for 22 hours at 110° C. The amino acids were extracted from the PVDF membrane with 70% 0.1 N HCl/30% methanol and were determined by high-performance liquid chromatography as phenylthiocarbamyl derivatives. The amino acid composition of the unreduced protein band coeluted from the Sephacryl S-300 HR column together with the protease activity is shown in Table 1. […]

BSA = experiment: Incubation of other proteins with the purified protease: BSA; format: biochemical; details: 0.2 mg/ml, undiluted barium-preincubated protease, 1 M urea, pH 8.0, 24 hours at 37° C.
calf skin collagen = experiment: Incubation of other proteins with the purified protease: collagen; format: biochemical; details: 0.4 mg/ml, undiluted barium-preincubated protease, 1 M urea, pH 8.0, 24 hours at 37° C.
human fibrinogen = experiment: Incubation of other proteins with the purified protease: fibrinogen; format: biochemical; details: 0.4 mg/ml, undiluted barium-preincubated protease, 1 M urea, pH 8.0, 24 hours at 37° C.
[3] = test system: Recombinant vWF factor (r-vWF); experiment: Proteolytic fragmentation of recombinant vWF by the vWF protease preparation; format: biochemical
Experimental: The buffer system which had been sufficiently optimized for the instant assaying system thus comprised a dialysis Solution with 1 M urea in 5 mM Tris-HCl at pH 8. Full activation of the protease was achieved by preincubation for 5 minutes at 37° C. with 10 mM barium chloride. In a typical experiment, 50 μl activated protease solution and 100 μl substrate solution were carefully placed on a floating membrane, and incubated in a closed tube for 24 h in a dry oven at 37° C.
Recombinant vWF factor (r-vWF), produced according to FEBS-Letters 375, 259-262 (1995) with a concentration of 104 U (Ag)/ml in 20 mM TBS buffer, pH 8.3, was incubated as described above with the vWF protease preparation according to the invention.
as §1, with “Staining of the protein bands was effected by means of the nitroblue tetrazolium/bromochloro-indolyl-phosphate substrate system.” left out

vWF from cryoprecipitate = experiment: Degradation of plasmatic vWF (cryoprecipitate, highest molecular weight multimers) by vWF protease; format: biochemical, human
[4] = Incubation of r-vWF in vWF-deficient human plasma; format: in vitro ADME
Experimental: Further tests investigated whether a proteolytic degradation of r-vWF took place during incubation with human plasma (cf. FIG. 18). For this, the r-vWF preparation was mixed with equal volumes of a vWF-deficient plasma (cf. FIG. 18 (panel A)) and incubated for 48 hours, samples being taken at various times. No change of the r-vWF over time could be detected.
as §1

[5] = Stability of purified vWF fractions on dialysis incubation; format: physicochemical; details: fractions 12 to 20, 24 h dialysis incubation at 37° C., absence of inhibitors, citrate/NaCl buffer or 1 M urea buffer
Experimental: vWF was purified by gal filtration of human cryoprecipitate, obtained from 1 l citrated plasma, an a 2.6×35-cm column of Sepharose CL-2B (Pharmacia, Uppsala, Sweden). Elution was performed with 0.13 M sodium chloride, 0.01 M citrate, 0.01 M Tris-HCl, pH 7.4. Fractions of 6 ml were collected at a flow rate of 24 ml/h. vWF antigen was measured by ELISA by using polyclonal rabbit antiserum against human vWF (RAHu/FVIII, from Nordic (Tillburg, The Netherlands), peroxidase-labeled rabbit antihuman-vWF, mouse monoclonal antibody against rabbit IgG (M737), and the kit for immunostaining (K670) (all from Dako (Glostrup, Denmark)), according to the instructions included with the kit.
SDS agarose gels of these assays are illustrated in FIG. 2 (panels A and B).

T2 sequence (P00747 581-810): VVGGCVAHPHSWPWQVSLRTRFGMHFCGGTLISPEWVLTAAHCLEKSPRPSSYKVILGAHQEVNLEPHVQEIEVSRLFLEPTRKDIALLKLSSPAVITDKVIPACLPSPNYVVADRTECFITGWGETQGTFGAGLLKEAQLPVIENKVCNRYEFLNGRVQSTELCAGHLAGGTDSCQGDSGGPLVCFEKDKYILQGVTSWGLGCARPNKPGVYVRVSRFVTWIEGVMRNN
T2 sequence (P00747 97-580): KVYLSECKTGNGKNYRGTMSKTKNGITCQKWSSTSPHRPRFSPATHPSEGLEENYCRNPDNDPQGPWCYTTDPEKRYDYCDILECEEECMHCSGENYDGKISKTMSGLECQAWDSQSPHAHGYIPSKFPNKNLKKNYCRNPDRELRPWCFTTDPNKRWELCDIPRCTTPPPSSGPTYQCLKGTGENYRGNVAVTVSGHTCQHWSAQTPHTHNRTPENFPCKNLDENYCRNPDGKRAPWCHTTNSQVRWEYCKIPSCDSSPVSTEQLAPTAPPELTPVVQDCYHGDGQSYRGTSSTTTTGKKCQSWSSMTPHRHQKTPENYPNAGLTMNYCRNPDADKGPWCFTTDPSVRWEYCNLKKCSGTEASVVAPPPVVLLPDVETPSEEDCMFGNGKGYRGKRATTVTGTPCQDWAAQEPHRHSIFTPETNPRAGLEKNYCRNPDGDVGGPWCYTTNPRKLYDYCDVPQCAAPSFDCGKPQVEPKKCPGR

## N=C(N)NCCC[C@H](NC(=O)[C@@H]1CCCN1C(=O)[C@H](N)Cc1ccccc1)C(=O)CCl [PPACK, Diphenylalanylprolyl arginine-chloromethylketone]
vWF protease
  degradation of cryoprecipitate vWF by vWF protease on addition of inhibitor: could not be prevented
  degradation of recombinant vWF by the protease in the presence of inhibitor: degraded identically
plasmin
  effect of inhibitor on plasmin-induced reduction of high multimers of cryoprecipitate: prevented
  effect of inhibitor on plasmin degradation of r-vWF: prevented

## aprotinin
vWF-cleaving protease
  inhibition of the barium-preincubated protease (vWF degradation): no inhibition
vWF protease
  degradation of cryoprecipitate vWF by vWF protease on addition of inhibitor: could not be prevented
  degradation of recombinant vWF by the protease in the presence of inhibitor: degraded identically
plasmin
  effect of inhibitor on plasmin-induced reduction of high multimers of cryoprecipitate: prevented
  effect of inhibitor on plasmin degradation of r-vWF: prevented

## protease: von Willebrand factor cleaving protease purified from human plasma, named multimerase; converts singlet vWF to satellite structure
[1]
  plasmin activity: 0.2 U/ml
[2]; in the absence of calcium, strontium and barium ions
  stability of the protease in solution: quite stable
[2]; prolonged preincubation with calcium, strontium and barium, even at physiological salt and without urea
  protease activity after prolonged preincubation: loss of protease activity
vWF
  peptide bond of vWF cleaved: 842Tyr-843Met
BSA
  degradation of BSA: no degradation
Calf skin collagen
  degradation of calf skin collagen: no degradation
Human fibrinogen
  degradation of human fibrinogen: no degradation
[3]; after 3 h
  multimer pattern of r-vWF after incubation with protease: loss of the highest multimers
[3]; after 20 hours
  multimer pattern of r-vWF after incubation with protease: oligomers and multimers could no longer be detected
vWF from cryoprecipitate; cryoprecipitate
  multimer pattern of cryoprecipitate vWF on incubation with vWF protease: loss of multimers could be observed over time
vWF from cryoprecipitate; laboratory preparation 10 U (Ag)/ml in 20 mm TBS buffer, pH 8.3
  multimer pattern of highest molecular weight vWF multimers preparation with vWF protease: clear shift towards lower molecular weight multimers

## r-vWF: Recombinant vWF factor produced according to FEBS-Letters 375, 259-262 (1995), singlet structure
[4]; equal length of time at 37° C. in buffer media
  change of r-vWF structure in control preparation: no change of structure
[4]; mixed with equal volume of vWF-deficient plasma, incubated for 48 hours
  change of r-vWF over time: No change

## vWF: vWF purified by gel filtration of human cryoprecipitate, fractions 12 to 20
[5]
  stability of vWF (multimer pattern): very stable
